Measured values published in patent publication US11028067B2, “Heteroarylsulfonyl-substituted pyridines and their use in the treatment of cancer” (Oblique Therapeutics AB, priority 2017, dated 2021).

How the values were obtained:
[1] = molecular target: recombinant thioredoxin reductase 1 (TrxR1) (Homo sapiens (Human), UniProt Q16881); experiment: Inhibition of recombinant TrxR1 (DTNB assay); assay type: biochemical; settings: 30 nM TrxR1, 250 μM NADPH, 15 minutes incubation, 2 mM DTNB; read-out: TrxR inhibition
recombinant thioredoxin reductase 1 (TrxR1), sequence (Q16881 151-649): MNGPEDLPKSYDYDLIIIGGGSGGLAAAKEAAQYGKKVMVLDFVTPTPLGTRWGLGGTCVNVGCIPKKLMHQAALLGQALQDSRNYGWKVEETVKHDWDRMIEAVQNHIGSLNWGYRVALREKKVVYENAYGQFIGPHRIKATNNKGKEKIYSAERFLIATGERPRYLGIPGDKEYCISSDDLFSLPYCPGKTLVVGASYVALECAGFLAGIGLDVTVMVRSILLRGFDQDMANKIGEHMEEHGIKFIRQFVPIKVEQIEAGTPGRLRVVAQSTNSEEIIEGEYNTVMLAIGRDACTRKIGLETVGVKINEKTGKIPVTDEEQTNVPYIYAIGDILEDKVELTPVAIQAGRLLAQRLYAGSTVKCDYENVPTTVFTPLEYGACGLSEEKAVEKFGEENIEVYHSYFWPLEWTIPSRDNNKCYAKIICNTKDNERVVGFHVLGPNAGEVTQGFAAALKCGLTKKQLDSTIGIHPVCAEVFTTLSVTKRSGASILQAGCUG
Description: (§1) Small molecule inhibition of recombinant thioredoxin reductase 1 (TrxR1) and gluthathione reductase (GR) was examined in 96-well plate format. 30 nM TrxR1 was incubated in the presence of 250 μM NADPH, 0.1 mg/ml BSA, and various concentrations of the compounds (1% DMSO final) in 50 mM Tris (pH 7.5) and 2 mM EDTA buffer for 15 minutes. Following the incubation period, 2 mM DTNB was added to each well and the change in O.D. at 412 nm was followed. Percent activity was determined using DMSO vehicle and no TrxR1 (blank) controls. 2 nM GR was incubated in the presence of 250 μM NADPH, 0.1 mg/ml BSA, and various concentrations of compounds (1% DMSO final) in 50 mM Tris (pH 7.5) and 2 mM EDTA buffer for 15 minutes. Following the incubation period, 1 mM GSSG was added to each well and the change in O.D. at 340 nm was followed. Percent activity was determined using DMSO vehicle and no GR (blank) controls.

[2] = molecular target: gluthathione reductase (GR) (Homo sapiens (Human), UniProt P00390); experiment: Inhibition of recombinant GR (GSSG assay); assay type: biochemical; settings: 2 nM GR, 250 μM NADPH, 15 minutes incubation, 1 mM GSSG
gluthathione reductase (GR), sequence (P00390 44-522): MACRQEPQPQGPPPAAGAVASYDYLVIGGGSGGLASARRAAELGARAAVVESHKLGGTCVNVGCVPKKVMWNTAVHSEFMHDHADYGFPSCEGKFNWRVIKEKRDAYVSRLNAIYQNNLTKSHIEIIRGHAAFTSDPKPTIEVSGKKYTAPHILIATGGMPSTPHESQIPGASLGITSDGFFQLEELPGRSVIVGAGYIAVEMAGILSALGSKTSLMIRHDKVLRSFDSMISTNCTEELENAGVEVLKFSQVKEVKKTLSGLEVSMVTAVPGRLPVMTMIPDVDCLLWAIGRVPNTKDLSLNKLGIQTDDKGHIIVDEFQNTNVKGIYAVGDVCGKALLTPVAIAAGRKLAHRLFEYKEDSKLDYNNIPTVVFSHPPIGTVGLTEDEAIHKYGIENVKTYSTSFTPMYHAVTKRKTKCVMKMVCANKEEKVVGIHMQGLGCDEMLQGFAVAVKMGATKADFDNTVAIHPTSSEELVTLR
Description: as §1

[3] = test system: FaDu cells; experiment: Head and neck cancer cell viability assay (Cell-Quanti Blue); assay type: cell-based; settings: Homo sapiens, 72 hrs, 10% FBS media containing 25 nM selenite
Description: (§2) FaDu cells were plated 2000 cells/well in 96-well black optical plates in the presence of 10% FBS media containing 25 nM selenite. The following day cells were treated with various concentrations of the compound of Example 1 (0.1% DMSO final) and incubated for 72 hrs. After the incubation Cell-Quanti Blue reagent was added to each well and incubated for additional 3 hrs. Fluorescence was read ex: 530 nm/em: 590 nm, and percent of viability was determined using DMSO vehicle and no cell (blank) controls.

[4] = test system: MDA-MB-231 cells; experiment: Breast cancer cell viability assay (Alamar Blue); assay type: cell-based; settings: Homo sapiens, 72 hrs, 10% FBS media containing 25 nM selenite
Description: as §2, with “MDA-MB-231” for “FaDu”, “compounds” for “the compound of Example 1”, “Alamar” for “Cell-Quanti”

[5] = test system: U-87 MG; experiment: Cancer cell viability assay (MTT), U-87 MG; assay type: cell-based; settings: 72 hrs, 10% FBS media
Description: (§3) Breast cancer and glioblastoma cell lines were plated 4000 cells/well in 96-well plates in the presence of 10% FBS media. The following day cells were treated with various concentrations of example compounds (0.1% DMSO final) and incubated for 72 hrs. After the incubation An MTT assay was performed to access cell viability. Percent of viability was determined using DMSO vehicle and no cell (blank) controls.

[6] = test system: MDA-MB-231; experiment: Cancer cell viability assay (MTT), MDA-MB-231; assay type: cell-based; settings: 10% FBS media
Description: as §3

[7] = test system: MDA-MB-468; experiment: Cancer cell viability assay (MTT), MDA-MB-468; assay type: cell-based; settings: 10% FBS media
Description: as §3

SMILES	IC50 [1]	IC50 [2]	IC50 [3]	IC50 [4]	IC50 ([5]; Homo sapiens, U-87 MG)	IC50 ([6]; Homo sapiens, MDA-MB-231, 72 hrs)	IC50 ([7]; Homo sapiens, MDA-MB-468, 72 hrs)	IC50 [5]	IC50 ([6]; 72 hrs)	IC50 ([7]; 72 hrs)
COc1ccc([N+](=O)[O-])c(S(=O)(=O)c2ccccn2)n1 [Example 1, 6-Methoxy-3-nitro-2-(pyridin-2-ylsulfonyl)pyridine]	26.8 nM	64200 nM	1610 nM	3610 nM	8200 nM	2970 nM	4340 nM			
O=[N+]([O-])c1ccc(Cl)nc1S(=O)(=O)c1ccccn1 [Example 2, 6-Chloro-3-nitro-2-(pyridin-2-ylsulfonyl)pyridine]	56.9 nM	9890 nM	610 nM							
CN(C)c1ccc([N+](=O)[O-])c(S(=O)(=O)c2ccccn2)n1 [Example 3, 6-Dimethylamino-3-nitro-2-(pyridin-2-ylsulfonyl)pyridine]	558 nM	> 100000 nM	2890 nM							
COc1ccc([N+](=O)[O-])c(S(=O)(=O)c2ccncc2)n1 [Example 4, 6-methoxy-3-nitro-2-(pyridin-4-ylsulfonyl)pyridine]	0.854 nM	11200 nM		> 100000 nM						
COc1ccc([N+](=O)[O-])c(S(=O)(=O)c2ncccn2)n1 [Example 5, 2-((6-methoxy-3-nitropyridin-2-yl)sulfonyl)pyrimidine]	10.8 nM	> 100000 nM		4540 nM						
COc1ccc([N+](=O)[O-])c(S(=O)(=O)c2ncc[nH]2)n1 [Example 6, 2-((1H-imidazol-2-yl)sulfonyl)-6-methoxy-3-nitropyridine]	3.99 nM	> 100000 nM		10800 nM						
COc1ccc([N+](=O)[O-])c(S(=O)(=O)c2nc(C)cs2)n1 [Example 7, 2-((6-methoxy-3-nitropyridin-2-yl)sulfonyl)-4-methylthiazole]	6.9 nM	> 100000 nM	45700 nM	3090 nM						
COc1ccc([N+](=O)[O-])c([S+]([O-])c2ccccn2)n1 (stereo not drawn) [Example 8, 6-Methoxy-3-nitro-2-(pyridin-2-ylsufinyl)-pyridine]	5.5 nM							2530 nM	1020 nM	960 nM
